US20240350669A1, “INHIBITION OF KYNURENINE SYNTHESIS AND/OR SIGNALING TO TREAT LEUKEMIA AND MYELODYSPLASIA” (THE TRUSTEES OF COLUMBIA UNIVERSITY IN THE CITY OF NEW YORK, priority 2022, published 2024)

Assays:
[1] = system: patient-derived AML cells; test: Patient-derived AML xenograft (PDX) in NSGS mice, epacadostat daily gavage; format: in vivo, mouse; details: daily gavage 300 mg/kg
Protocol: (§1) Epacadostat (AdooQ Cat #A15554)-treatment: for the WT C57BL/6J mice, treatment started at the same time than MLL/AF9 cells were transplanted. For the patient-derived AML cells (PDX) transplanted into NSG mice, treatment started 8 weeks after transplant, at the same time than Ara-C and during 3 weeks. Mice were supplied with ad libitum epacadostat-supplemented diet (Research Diets Inc.) at 800 mg/kg (low-dose) or 1.6 g/kg (high-dose). For the PDX transplanted into NSGS mice, treatment started 3 weeks after transplant, by daily gavage at 300 mg/kg (InvivoChem Cat #: V0942, dissolved in 10% DMSO, 40% PEG 300 and 50% NaCl 0.9%) for 2 weeks.
(§2) 4-6 weeks old NSG (CDX model) or NSGS (PDX model) mice were pre-conditioned with sublethal (1.4 Gy) total-body irradiation. 24 h after, 1×10^6 OCI-AML3 or 2×10^5 human BM CD34^+ (healthy) or primary AML patient samples were injected i.v. Engraftment levels were monitored and mice were randomized after BM aspiration 3-4 weeks later and immunophenotyped by the presence of mCD45 (BioLegend Cat #103133, RRID: AB_10899570), hCD45 (BioLegend Cat #368512, RRID: AB_2566372), hCD33 (BioLegend Cat #303404, RRID: AB_314348), hCD34 (BioLegend Cat #343518, RRID: AB_1937203) cell populations. For the low-burden PDX model (kynurenine injections), mice were treated 1 week after transplant.
(§3) Quantification in serum from peripheral blood (mice) or BM plasma (patients) of Kyn and Trp was assessed by ELISA using independent kits (ImmunoSmol) as per manufacturer's instructions. The ratio between Kyn and Trp levels is shown. SAA3 in serum (murine SAA3 ELISA Kit Millipore) and SAA1 in patient BM plasma (Amyloid A1 DuoSet ELISA Kit (R&D) were assessed as per manufacturer's instructions.
(§4) Cell labelling was done by i.p. injection of mice with 50 mg/kg of freshly prepared 5-Ethynyl-2′-deoxyuridine-Edu-(Cayman Chemical Company Cat #20518). After 3-4 h, BM was harvested, and human cells were negatively selected by mouse cell depletion using mouse CD45 magnetic beads (Miltenyi). The human BM cells were then stained CD45 and CD33 to identify the leukemic blast. Cell cycle/proliferation analysis was performed using the Click-iT Plus EdU Flow Cytometry Assay Kit (Invitrogen, Cat #C10420) following manufacturers' instructions. Fixable viability dye (Biolegend) was used to discriminate the death population. Single color controls were used to set compensations and fluorescence minus one control were used to set gates. Analysis was performed with FlowJo software.

[2] = system: patient-derived AML cells; test: Patient-derived AML xenograft in NSG mice, epacadostat chow and/or Ara-C; format: in vivo, mouse
Protocol: as §1
For the combination therapy (Epacadostat+chemotherapy) performed at the University of Pennsylvania, patient-derived AML cells were transplanted as previously reported (48). Briefly 6 weeks old NSG males were sublethally treated with busulfan (30 mg/kg) 24 h before transplant and 5×10^6 patient-derived AML cells were injected i.v. Engraftment was assessed, and mice were randomized at 7.5 weeks by BM aspirate as previously described. Randomized mice were treated with vehicle, cytosine arabinoside (Ara-C, 60 mg/kg/day×5 days i.p.), epacadostat chow (1.6 g/kg ad libitum) or both Ara-C and epacadostat chow for 3 weeks.

IDO1 [3] = test: Epacadostat in vitro: kynurenine secretion and cell cycle progression; format: cell-based
MLL/AF9 AML cells = test: MLL/AF9 syngeneic leukemia model in non-irradiated WT mice; format: in vivo, mouse
Protocol: PTH bone-anabolic treatment: mice were injected intraperitoneally (i.p.) with PTH (Bachem) at 80 μg/kg/day in PBS. Injections started 1 week before MLL/AF9 injection and continued along 2-3 more weeks until mice were harvest.
SB224289-SB9-(TOCRIS Cat #1221) treatment: mice were injected intraperitoneally (i.p.) daily with SB9 (5 mg/kg in 0.9% NaCl) 1 week after leukemia injection and for the duration of the experiment. Assuming a 20 g body weight (BW) and a 2 ml total blood volume per mouse—as well as an even distribution of the drug-systemic concentration of SB9 should be approximately 50 μg/ml. Based on the MW of SB9 (557.09), the final concentration—at equal distribution—in blood should be 8.97521e-05 M (≈90 μM).
as §1
All leukemia models were introduced by intravenous (i.v.) injection and transplanted into non-irradiated secondary recipient experimental animals. BALB/c mice were used for the WEHI-3B leukemia model (0.5×10^6/cells/mouse) and C57BL/6J mice for MLL/AF9-dsRed (0.2×10^6/cells/mouse). Leukemia progression was assessed by fluorescence (MLL/AF9 dsRed) using the IVIS-Spectrum Optical Imaging System (Caliper, Perkin Elmer). Mice were shaved to reduce light attenuation.

IDO1 [4] = test: Circulating Kyn and Trp levels (ELISA) in WT mice on epacadostat diet; format: in vivo, mouse
Protocol: as §1, §3

[5] = Systemic toxicity observation in WT mice on epacadostat diet; format: in vivo; details: ad libitum diet 0.8 g/kg
Protocol: as §1

WEHI-3B = test: WST-8 proliferation of mouse WEHI-3B AML cells exposed to SAA3; format: cell-based; details: SAA3 1 μg/ml, 24-72 h, versus vehicle
WEHI-3B cells = test: Ido1 mRNA in WEHI-3B cells exposed to recombinant SAA; format: cell-based, mouse; details: o/n treatment
Protocol: (§5) Treatments with recombinant proteins: human IL-1α, IL-1β, IL-6, IL-33, IL-34, CXCL1, CXCL3, CXCL5, CXCL8, CCL2, CCL20, Apo-SAA1 (all from Peprotech) and recombinant mouse SAA3 (Cusabio) were performed by o/n treatment with 50 ng/ml of the corresponding protein. SAA1 treatment of human AML cell lines was done with 1 μg/ml for 24, 48 or 72 h. Treatment of primary human MDS or AML lineage-depleted BM-MNCs was done with 5 μg/ml for 24 h. Treatment of PDX isolated human total BM cells was done with 1 μg/ml for 24 h.
(§6) RNA isolation, cDNA preparation and real-time PCR analyses were carried out following standard protocols. Total RNA from cortical bone (clean, flushed femurs, were centrifugated 20 seconds at 10.000 g's to remove any remaining BM) was extracted using TRIzol (Invitrogen) followed by RNA clean-up using PureLink RNA Mini Kit (Ambion, Invitrogen). mRNA was reversed transcribed using random hexamers RNA-to-cDNA kit (Takara). Specific forward and reverse primers were used in conjunction with PowerUp SYBR Green Master Mix (Applied Biosystems) for quantitative PCR. Expression levels were analyzed using the 2^−ΔΔCt method and were normalized for the expression of the housekeeping gene Hprt unless otherwise stated.

human AML cell lines = test: WST-8 proliferation of human AML cell lines exposed to SAA1; format: cell-based; details: SAA1 1 μg/ml, 24-72 h, versus vehicle
Protocol: as §5
(§7) Cell proliferation was performed by using Cell Counting Kit 8 (WST-8, Abcam) as per manufacturer's instructions. Briefly, 0.03×10^6 cells were seeded on tissue-culture clear bottom microplates (Corning) in their corresponding media (100 μl). When indicated, cells were treated with the indicated compounds and for the indicated time points. 10 μl/well of WST-8 solution was added and incubated for 2 h at 37° C. before measuring absorbance at 460 nm. For each experiment, the absorbance of the blank wells (growth media and vehicle/treatment) was subtracted from the values for those wells with cells.
In vitro: the indicated cell lines were incubated in reduced-serum media and exposed to SAA1 (1 μg/ml) for the 24-72 h as indicated.

[6] = system: human BM cells from PDX healthy or PDX AML mice; test: Ex vivo total human BM cells isolated from PDX mice exposed to SAA1; format: cell-based; details: SAA1 1 μg/ml, 24 h
Protocol: as §5, §7
Ex vivo xenografts (healthy CD34^+ versus patient-derived AML): total BM from NSGS mice was depleted of mouse cells with mouse CD45 magnetic beads (Miltenyi Biotec Cat #130-052-301, RRID: AB_2877061) and negatively selected human cells used.

[7] = system: human AML and MDS cell lines; test: mRNA levels in human AML and MDS cell lines exposed to SAA1; format: cell-based
Protocol: as §5, §6

AML and MDS BM MNCs = test: Ex vivo lineage-depleted AML and MDS patient BM MNCs exposed to SAA1; format: cell-based, human; details: SAA1 5 μg/ml, 24 h
Protocol: as §5, §7
Ex vivo primary AML and MDS patient's samples: MNCs from fresh BM patients' aspirates were isolated as previously described and depleted from mature hematopoietic cells (lineage Cell Depletion Kit, Miltenyi Biotec Cat #130-092-211). […]

[8] = system: leukemic blasts (hCD45+CD33+); test: In vivo SAA1 treatment of PDX mice, Edu cell cycle analysis of leukemic blasts; set-up: species or system mouse
Protocol: SAA1 (Peprotech Cat #300-53) treatment: for short-term treatment (2 days), mice were injected intra venous (i.v.) 72 h and 48 h before harvesting. For long-term treatment (8-days), mice received daily i.v. injections. In order to get the same SAA1 concentration in blood that the one used in vitro, we used a dosage of 100 μg/kg of SAA1, diluted in 0.9% NaCl. Assuming a 20 g body weight, 2 ml total blood volume, and an even distribution in the mouse, systemic concentration of SAA1 should be approximately 1 μg/ml.
as §2, §4

OCI-AML3 cells = test: IDO1 mRNA in OCI-AML3 cells exposed to recombinant osteoblast-secreted molecules; format: cell-based, human; details: o/n treatment, 50 ng/ml
Protocol: as §5, §6

[9] = day 22 after initiating therapy, Ara-C 60 mg/kg/day x 5 days, epacadostat chow 1.6 g/kg 3 weeks
[10] = SAA1 i.v., 2- and 8-day treatments

## NS(=O)(=O)NCCNc1nonc1C(=NO)Nc1ccc(F)c(Br)c1 [epacadostat]
[1]
  G0-G1 and G2-M populations of leukemic blasts: remained unchanged
  leukemic blasts apoptosis: increased leukemic blasts apoptosis
[1]; 12 days
  reduction in Kyn/Trp levels in blood: ~20%
[1]; 12 days, versus vehicle
  reduction in AML BM burden: ~20%
[1]; in vivo cell cycle
  proliferation of leukemic blasts (hCD45+CD33+): less proliferative
[2]; AML patient-derived xenograft models, summary statement
  leukemia burden in both the bone marrow and spleen: significantly decreases leukemia burden
[2]; [9]
  leukemic burden in BM: decreased leukemic burden
  leukemic burden in spleen: more pronounced effect in the spleen
IDO1 [3]
  cell cycle progression: impaired
  kynurenine secretion: abrogated
MLL/AF9 AML cells; AML-injected mice, dose not stated
  survival: increases in survival
MLL/AF9 AML cells; epacadostat diet 0.8 g/kg
  leukemia progression: tendency towards a slower leukemia progression
  survival: slight-yet significant-increase in survival
MLL/AF9 AML cells; epacadostat diet 1.6 g/kg
  AML burden: significant delay in AML burden
MLL/AF9 AML cells; epacadostat diet 1.6 g/kg, compared to the lower dose
  survival: significantly prolonged survival
IDO1 [4]; MLL/AF9-injected mice, diet 1.6 g/kg
  reduction in serum Kyn levels: 35%
IDO1 [4]; MLL/AF9 leukemic mice, diet 0.8 g/kg
  effect on the 1.5-fold-increase in systemic Kyn/Trp levels of MLL/AF9 leukemic mice: did not reduce
IDO1 [4]; no leukemia, ad libitum diet 0.8 g/kg
  reduction in basal circulating Kyn/Trp levels: 54%
IDO1 [4]; wild type mice, dose not stated
  reduction in circulating kynurenine and tryptophan levels: 41%
[5]
  systemic toxicity: did not show any obvious systemic toxicity

B1: SAA3: recombinant mouse SAA3 (Cusabio), murine orthologue of SAA1 (protein, UniProt P04918 19-122, looked up)
Serum amyloid A-3 protein: QRWVQFMKEAGQGSRDMWRAYSDMKKANWKNSDKYFHARGNYDAARRGPGGAWAAKVISDAREAVQKFTGHGAEDSRADQFANEWGRSGKDPNHFRPAGLPKRY
WEHI-3B
  proliferation of AML cell lines: increased proliferation
WEHI-3B cells
  Ido1 expression in WEHI-3B cells: upregulated Ido1 expression

B2: SAA1: recombinant human acute-phase protein serum amyloid A1 (Peprotech) (protein, UniProt P0DJI8 19-122, looked up)
Serum amyloid A-1 protein: RSFFSFLGEAFDGARDMWRAYSDMREANYIGSDKYFHARGNYDAAKRGPGGAWAAEVITDARENIQRFFGHGAEDSLADQAANEWGRSGKDPNHFRPAGLPEKY
Human AML cell lines
  proliferation of AML cell lines: increased proliferation
[6]
  proliferation of human cells from CD34+ healthy-injected mice: unresponsive
[6]; versus vehicle
  proliferation of patient-derived cells from AML-injected mice: high proliferative activity
[6]; PDX-AML versus CD34+ healthy-injected mice
  CYP1A1 and CYP1A2 gene expression: only upregulated in response to SAA1 in the human BM cells isolated from the PDX-AML
[6]; PDX-AML versus PDX healthy cells
  IDO1 expression: only upregulated in response to SAA1 in the PDX-AML isolated human cells
[7]; SAA1
  IDO1 expression across human AML cell lines and MDS-L: observed across several human AML cell lines as well as the MDS-L cell line
[7]; SAA1 1 μg/ml o/n
  expression of AHR target genes: upregulated most of the main AHR targets genes
WEHI-3B cells
  Ido1 expression in WEHI-3B cells: able to upregulate Ido1 expression
AML and MDS BM MNCs
  IDO1 mRNA levels in patient-derived BM MNCs: increased
  proliferation of lineage-depleted AML and MDS BM MNCs: promoted proliferation
[8]; 8-day treatment
  % of Sub-G1 apoptotic cells: reduced
[8]; SAA1 100 μg/kg i.v., 2- and 8-day treatments
  proliferative rate of leukemic blasts (Edu+ cells, S-phase): maintained and prominent increase
[8]; [10]
  G0-G1 cells: decrease
  G2-M phase: unvarying
[8]; completion of the 8-day treatment
  increase in AML burden in the BM: 1.5 fold
OCI-AML3 cells
  IDO1 expression in OCI-AML3 leukemic cells: able to upregulate IDO1 expression
